Values quoted from earlier work, collected in patent US20110144198A1, “BREAST CANCER PROGNOSTICS” (ATLAS ANTIBODIES AB, priority 2008, published 2011).

What was measured:
[1] = tested on: ERα positive (ERα+) patients
ERα+/PR− tumors = conditions: follow-up period of 6 years

Compound | fraction of ERα+ patients that do not respond to treatment [1] | recurrence rate compared to patients treated with tamoxifen (ERα+/PR− tumors)
CC/C(=C(\c1ccccc1)c1ccc(OCCN(C)C)cc1)c1ccccc1 [tamoxifen] | 30-40% | 
CC(C)(C#N)c1cc(Cn2cncn2)cc(C(C)(C)C#N)c1 [anastrozole] |  | halved
